Experimental data taken from patent US20160166540A1, “MODULATORS FOR ATP-BINDING CASSETTE TRANSPORTERS” (VERTEX PHARMACEUTICALS INCORPORATED, priority 2011, published 2016).

Target: T1, ΔF508-CFTR (Homo sapiens, UniProt P13569, DEL508-508)
T1 construct: expressed in transfected cells
Test: Membrane potential optical assay for ΔF508-CFTR correction (identification of correction compounds)
Type: cell-based
Details: NIH3T3; NIH 3T3 cells stably expressing ΔF508-CFTR; read-out: % Efficacy
From the text: Assays for Detecting and Measuring M508-CFTR Correction Properties of Compounds
Membrane potential optical methods for assaying ΔF508-CFTR modulation properties of compounds.
The assay utilizes fluorescent voltage sensing dyes to measure changes in membrane potential using a fluorescent plate reader (e.g., FLIPR III, Molecular Devices, Inc.) as a readout for increase in functional ΔF508-CFTR in NIH 3T3 cells. The driving force for the response is the creation of a chloride ion gradient in conjunction with channel activation by a single liquid addition step after the cells have previously been treated with compounds and subsequently loaded with a voltage sensing dye.
To identify small molecules that correct the trafficking defect associated with ˜F508-CFTR; a single-addition HTS assay format was developed. Assay Plates containing cells are incubated for ˜2-4 hours in tissue culture incubator at 37° C., S % CO2, 90% humidity. Cells are then ready for compound exposure after adhering to the bottom of the assay plates.
The cells were incubated in serum-free medium for 16-24 hrs in tissue culture incubator at 37° C., S % CO2, 90% humidity in the presence or absence (negative control) of test compound. […] The addition of Cl^−-free medium promoted Cl^− efflux in response to ΔF508-CFTR activation and the resulting membrane depolarization was optically monitored using voltage sensor dyes. […]

T1 sequence (P13569 with tags, fused parts or gaps DEL508-508): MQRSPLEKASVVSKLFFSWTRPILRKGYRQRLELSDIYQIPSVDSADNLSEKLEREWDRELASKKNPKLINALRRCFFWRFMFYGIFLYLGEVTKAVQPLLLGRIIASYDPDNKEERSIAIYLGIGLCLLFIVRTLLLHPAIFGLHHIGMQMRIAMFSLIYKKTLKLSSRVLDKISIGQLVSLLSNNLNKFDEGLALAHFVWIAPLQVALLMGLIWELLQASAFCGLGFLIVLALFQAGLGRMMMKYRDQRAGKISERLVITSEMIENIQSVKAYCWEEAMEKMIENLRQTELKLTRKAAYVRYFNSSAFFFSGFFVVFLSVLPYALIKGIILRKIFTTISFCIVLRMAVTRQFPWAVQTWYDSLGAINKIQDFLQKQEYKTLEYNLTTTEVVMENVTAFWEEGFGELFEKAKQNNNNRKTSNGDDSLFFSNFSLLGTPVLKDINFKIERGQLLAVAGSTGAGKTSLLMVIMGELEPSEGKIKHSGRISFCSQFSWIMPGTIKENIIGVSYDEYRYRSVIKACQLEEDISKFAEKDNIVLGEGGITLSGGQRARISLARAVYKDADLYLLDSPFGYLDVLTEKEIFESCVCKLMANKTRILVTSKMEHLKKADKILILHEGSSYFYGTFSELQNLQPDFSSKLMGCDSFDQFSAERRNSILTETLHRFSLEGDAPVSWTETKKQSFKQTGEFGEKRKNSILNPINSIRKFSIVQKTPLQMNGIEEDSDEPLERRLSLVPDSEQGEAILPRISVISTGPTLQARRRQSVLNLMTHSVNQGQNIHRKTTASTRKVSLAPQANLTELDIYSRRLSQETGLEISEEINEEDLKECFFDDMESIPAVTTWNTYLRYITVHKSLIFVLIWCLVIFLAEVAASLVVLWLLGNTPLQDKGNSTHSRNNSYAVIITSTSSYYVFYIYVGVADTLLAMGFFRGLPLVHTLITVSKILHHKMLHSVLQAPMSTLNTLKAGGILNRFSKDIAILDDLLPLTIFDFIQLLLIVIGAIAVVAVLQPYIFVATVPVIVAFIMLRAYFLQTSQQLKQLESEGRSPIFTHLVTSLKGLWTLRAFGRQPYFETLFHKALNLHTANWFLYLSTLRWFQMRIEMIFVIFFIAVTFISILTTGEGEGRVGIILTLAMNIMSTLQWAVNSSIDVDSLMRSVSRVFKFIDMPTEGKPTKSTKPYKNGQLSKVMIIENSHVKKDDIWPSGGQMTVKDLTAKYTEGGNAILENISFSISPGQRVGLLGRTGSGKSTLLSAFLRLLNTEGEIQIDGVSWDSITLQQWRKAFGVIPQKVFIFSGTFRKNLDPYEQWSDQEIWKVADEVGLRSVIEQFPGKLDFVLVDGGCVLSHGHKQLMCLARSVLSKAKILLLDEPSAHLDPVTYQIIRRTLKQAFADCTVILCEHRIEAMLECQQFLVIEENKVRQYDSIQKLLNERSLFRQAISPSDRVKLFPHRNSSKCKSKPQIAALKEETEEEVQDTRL

Emax: > 100%
SMILES: CC1(C)c2cc3cc(NC(=O)C4(c5ccc6c(c5)OC(F)(F)O6)CC4)c(F)cc3n2C[C@H](CO)OC1O (stereo partly drawn) [1-(2,2-difluorobenzo[d][1,3]dioxol-5-yl)-N-((4R)-8-fluoro-2-hydroxy-4-(hydroxymethyl)-1,1-dimethyl-1,2,4,5-tetrahydro-[1,4]oxazepino[4,5-a]indol-9-yl)cyclopropanecarboxamide]
